Measurements reported in patent publication US11325899B2, “Benzofurane and benzothiophene derivatives as PGE2 receptor modulators” (IDORSIA PHARMACEUTICALS LTD, priority 2017, dated 2022).

Target: T1, EP4 receptor (Homo sapiens, UniProt P35408)
T1 construct: BT549 breast cancer cells, express high endogenous EP4 levels and very low EP2 levels; host or cells: BT549 breast cancer cells
Assay: hEP4 cAMP assay (BT549 breast cancer cells, HTRF cAMP, PGE2 stimulation)
Type: cell-based
Details: antagonistic activity, PGE2 6 nM (EC80)
Method in brief: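 BT549 cells, with endogenous EP4 and very low EP2, were preincubated 45 min at room temperature with compound in HBSS/HEPES/BSA buffer with 2 mM IBMX. They were then stimulated 30 min with 6 nM PGE2 (EC80). cAMP was measured by HTRF competitive immunoassay against a calibrator; IC50 from duplicate dose-response as % of DMSO control.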

T1 sequence (P35408 whole entry): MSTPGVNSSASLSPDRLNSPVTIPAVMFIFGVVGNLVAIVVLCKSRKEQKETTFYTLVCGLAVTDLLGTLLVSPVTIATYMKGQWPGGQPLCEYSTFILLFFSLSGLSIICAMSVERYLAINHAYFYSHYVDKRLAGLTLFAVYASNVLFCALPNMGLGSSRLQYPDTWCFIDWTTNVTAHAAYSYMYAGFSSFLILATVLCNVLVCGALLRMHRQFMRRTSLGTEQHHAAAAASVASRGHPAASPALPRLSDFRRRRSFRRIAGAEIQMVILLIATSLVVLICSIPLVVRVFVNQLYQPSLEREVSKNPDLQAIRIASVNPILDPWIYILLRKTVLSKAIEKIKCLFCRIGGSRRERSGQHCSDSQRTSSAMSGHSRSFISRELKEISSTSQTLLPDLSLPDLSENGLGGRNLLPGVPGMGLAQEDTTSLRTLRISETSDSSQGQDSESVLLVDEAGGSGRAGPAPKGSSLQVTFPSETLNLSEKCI

SMILES	IC50
COc1ccc(Cl)c2c(CCNc3cc(-c4ccc(C(=O)O)c(OC(F)F)c4)ncn3)c(C)sc12 [Example 116, 4-{6-[2-(4-Chloro-7-methoxy-2-methyl-benzo[b]thiophen-3-yl)-ethylamino]-pyrimidin-4-yl}-2-difluoromethoxy-benzoic acid]	223 nM
CCOc1cc(-c2cc(NCCc3c(C)sc4c(OC)ccc(F)c34)ncn2)ccc1OCC(=O)O [Example 117, (2-Ethoxy-4-{6-[2-(4-fluoro-7-methoxy-2-methyl-benzo[b]thiophen-3-yl)-ethylamino]-pyrimidin-4-yl}-phenoxy)-acetic acid]	54 nM
CCOc1cc(-c2cc(NCCc3c(C)sc4c(C)ccc(F)c34)ncn2)ccc1OCC(=O)O [Example 118, (2-Ethoxy-4-{6-[2-(4-fluoro-2,7-dimethyl-benzo[b]thiophen-3-yl)-ethylamino]-pyrimidin-4-yl}-phenoxy)-acetic acid]	87 nM
CCOc1cc(-c2cc(NCCc3c(C)sc4c(C)c(F)ccc34)ncn2)ccc1OCC(=O)O [Example 119, (2-Ethoxy-4-{6-[2-(6-fluoro-2,7-dimethyl-benzo[b]thiophen-3-yl)-ethylamino]-pyrimidin-4-yl}-phenoxy)-acetic acid]	110 nM
CCOc1cc(-c2cc(NCCc3c(C)oc4c(Cl)cccc34)ncn2)ccc1OCC(=O)O [Example 120, (4-{6-[2-(7-Chloro-2-methyl-benzofuran-3-yl)-ethylamino]-pyrimidin-4-yl}-2-ethoxy-phenoxy)-acetic acid]	123 nM
CCOc1cc(-c2cc(NCCc3c(C)oc4c(OC)cc(Cl)cc34)ncn2)ccc1OCC(=O)O [Example 121, (4-{6-[2-(5-Chloro-7-methoxy-2-methyl-benzofuran-3-yl)-ethylamino]-pyrimidin-4-yl}-2-ethoxy-phenoxy)-acetic acid]	129 nM
CCOc1cc(-c2cc(NCCc3c(C)sc4c(C)cccc34)ncn2)ccc1OCC(=O)O [Example 122, (4-{6-[2-(2,7-Dimethyl-benzo[b]thiophen-3-yl)-ethylamino]-pyrimidin-4-yl}-2-ethoxy-phenoxy)-acetic acid]	136 nM
CCCCOc1cc(-c2cc(NCCc3c(C)sc4c(C)cc(F)cc34)ncn2)ccc1C(=O)O [Example 127, 2-Butoxy-4-{6-[2-(5-fluoro-2,7-dimethyl-benzo[b]thiophen-3-yl)-ethylamino]-pyrimidin-4-yl}-benzoic acid]	873 nM
Cc1oc2ccccc2c1CCNc1cc(-c2ccc(C(=O)O)c(SC3CCC3)c2)ncn1 [Example 129, 2-Cyclobutylsulfanyl-4-{6-[2-(2-methyl-benzofuran-3-yl)-ethylamino]-pyrimidin-4-yl}-benzoic acid]	795 nM
Cc1sc2c(C)cccc2c1CCNc1cc(-c2ccc(C(=O)O)c(SC3CCC3)c2)ncn1 [Example 130, 2-Cyclobutylsulfanyl-4-{6-[2-(2,7-dimethyl-benzo[b]thiophen-3-yl)-ethylamino]-pyrimidin-4-yl}-benzoic acid]	980 nM
Cc1sc2c(C)cccc2c1CCNc1cc(-c2ccc(C(=O)O)c(SC3COC3)c2)ncn1 [Example 131, 4-{6-[2-(2,7-Dimethyl-benzo[b]thiophen-3-yl)-ethylamino]-pyrimidin-4-yl}-2-(oxetan-3-ylsulfanyl)-benzoic acid]	625 nM
O=C(O)c1ccc(-c2cc(NCCc3csc4ccccc34)ncn2)cc1OC1CCC1 [Example 132, 4-[6-(2-Benzo[b]thiophen-3-yl-ethylamino)-pyrimidin-4-yl]-2-cyclobutoxy-benzoic acid]	166 nM
COc1cc(Cl)cc2c(CCNc3cc(-c4ccc(C(=O)O)c(OC5CCC5)c4)ncn3)c(C)oc12 [Example 133, 4-{6-[2-(5-Chloro-7-methoxy-2-methyl-benzofuran-3-yl)-ethylamino]-pyrimidin-4-yl}-2-cyclobutoxy-benzoic acid]	170 nM
COc1ccc(F)c2c(CCNc3cc(-c4ccc(C(=O)O)c(OC5CCC5)c4)ncn3)c(C)sc12 [Example 134, 2-Cyclobutoxy-4-{6-[2-(4-fluoro-7-methoxy-2-methyl-benzo[b]thiophen-3-yl)-ethylamino]-pyrimidin-4-yl}-benzoic acid]	194 nM
COc1ccc(Cl)c2c(CCNc3cc(-c4ccc(C(=O)O)c(OC5CCC5)c4)ncn3)c(C)sc12 [Example 135, 4-{6-[2-(4-Chloro-7-methoxy-2-methyl-benzo[b]thiophen-3-yl)-ethylamino]-pyrimidin-4-yl}-2-cyclobutoxy-benzoic acid]	198 nM
Cc1sc2c(C)ccc(F)c2c1CCNc1cc(-c2ccc(C(=O)O)c(OC3CCC3)c2)ncn1 [Example 136, 2-Cyclobutoxy-4-{6-[2-(4-fluoro-2,7-dimethyl-benzo[b]thiophen-3-yl)-ethylamino]-pyrimidin-4-yl}-benzoic acid]	411 nM
Cc1oc2c(Cl)cccc2c1CCNc1cc(-c2ccc(C(=O)O)c(OC3CCC3)c2)ncn1 [Example 137, 4-{6-[2-(7-Chloro-2-methyl-benzofuran-3-yl)-ethylamino]-pyrimidin-4-yl}-2-cyclobutoxy-benzoic acid]	423 nM
Cc1sc2c(C)cc(F)cc2c1CCNc1cc(-c2ccc(C(=O)O)c(OC3CCC3)c2)ncn1 [Example 138, 2-Cyclobutoxy-4-{6-[2-(5-fluoro-2,7-dimethyl-benzo[b]thiophen-3-yl)-ethylamino]-pyrimidin-4-yl}-benzoic acid]	478 nM
COc1ccc(F)c2c(CCNc3cc(-c4ccc(C(=O)O)c(OC5CCC5)c4)ncn3)c(C)oc12 [Example 139, 2-Cyclobutoxy-4-{6-[2-(4-fluoro-7-methoxy-2-methyl-benzofuran-3-yl)-ethylamino]-pyrimidin-4-yl}-benzoic acid]	481 nM
Cc1oc2c(C)cc(F)cc2c1CCNc1cc(-c2ccc(C(=O)O)c(OC3CCC3)c2)ncn1 [Example 140, 2-Cyclobutoxy-4-{6-[2-(5-fluoro-2,7-dimethyl-benzofuran-3-yl)-ethylamino]-pyrimidin-4-yl}-benzoic acid]	580 nM
COc1cc(F)c(F)c2c(CCNc3cc(-c4ccc(C(=O)O)c(OC5CCC5)c4)ncn3)c(C)oc12 [Example 141, 2-Cyclobutoxy-4-{6-[2-(4,5-difluoro-7-methoxy-2-methyl-benzofuran-3-yl)-ethylamino]-pyrimidin-4-yl}-benzoic acid]	582 nM
CCOc1cc(-c2cc(NCCc3c(C)sc4c(C)cc(F)cc34)ncn2)ccc1-c1nnn[nH]1 [Example 142, {6-[3-Ethoxy-4-(1H-tetrazol-5-yl)-phenyl]-pyrimidin-4-yl}-[2-(5-fluoro-2,7-dimethyl-benzo[b]thiophen-3-yl)-ethyl]-amine]	105 nM
CCOc1cc(-c2cc(NCCc3c(C)sc4c(C)cc(F)cc34)ncn2)ccc1OCCC(=O)O [Example 143, 3-(2-Ethoxy-4-{6-[2-(5-fluoro-2,7-dimethyl-benzo[b]thiophen-3-yl)-ethylamino]-pyrimidin-4-yl}-phenoxy)-propionic acid]	115 nM
CCCCOc1cc(-c2cc(NCCc3c(C)sc4c(C)cc(F)cc34)ncn2)cc(F)c1C(=O)O [Example 144, 2-Butoxy-6-fluoro-4-{6-[2-(5-fluoro-2,7-dimethyl-benzo[b]thiophen-3-yl)-ethylamino]-pyrimidin-4-yl}-benzoic acid]	112 nM
